Key:
Assay in all cases: Test C greenhouse herbicide test, pre- and postemergence
Assay type in all cases: in vivo
[1] = system: wheat (winter wheat, Triticum aestivum)
From the text: (§1) Seeds of plant species selected from blackgrass (Alopecurus myosuroides), ryegrass, Italian (Italian ryegrass, Lolium multiflorum), wheat (winter wheat, Triticum aestivum), galium (catchweed bedstraw, Galium aparine), corn (Zea mays), large crabgrass, large (large crabgrass, Digitaria sanguinalis), foxtail, giant (giant foxtail, Setaria faberii), johnsongrass (Sorghum halepense), lambsquarters (Chenopodium album), morningglory (Ipomoea coccinea), nutsedge, yellow (yellow nutsedge, Cyperus esculentus), pigweed (Amaranthus retroflexus), ragweed (common ragweed, Ambrosia elatior), soybean (Glycine max), barnyardgrass (Echinochloa crus-galli), oilseed rape (Brassica napus), waterhemp (common waterhemp, Amaranthus rudis), and velvetleaf (Abutilon theophrasti) were planted into a blend of loam soil and sand and treated preemergence with test chemicals formulated in a non-phytotoxic solvent mixture which included a surfactant.
(§2) At the same time, plants selected from these crop and weed species and also chickweed (common chickweed, Stellaria media), kochia (Kochia scoparia), and oat, wild (wild oat, Avena fatua), were planted in pots containing Redi-Earth® planting medium (Scotts Company, 14111 Scottslawn Road, Marysville, Ohio 43041) comprising spaghnum peat moss, vermiculite, wetting agent and starter nutrients and treated with postemergence applications of test chemicals formulated in the same manner. Plants ranged in height from 2 to 18 cm (1- to 4-leaf stage) for postemergence treatments. Treated plants and controls were maintained in a greenhouse for 13 to 15 d, after which time all species were compared to controls and visually evaluated. Plant response ratings, summarized in Table C, are based on a scale of 0 to 100 where 0 is no effect and 100 is complete control. A dash (-) response means no test result.

[2] = system: foxtail, giant (giant foxtail, Setaria faberii)
From the text: as §1, §2

[3] = system: pigweed (Amaranthus retroflexus)
From the text: as §1, §2

soybean (Glycine max) = system: soybean (Glycine max)
From the text: as §1, §2

[4] = system: galium (catchweed bedstraw, Galium aparine)
From the text: as §1, §2

[5] = system: waterhemp (common waterhemp, Amaranthus rudis)
From the text: as §1, §2

[6] = system: blackgrass (Alopecurus myosuroides)
From the text: as §1, §2

[7] = system: velvetleaf (Abutilon theophrasti)
From the text: as §1, §2

[8] = system: oilseed rape (Brassica napus)
From the text: as §1, §2

[9] = system: nutsedge, yellow (yellow nutsedge, Cyperus esculentus)
From the text: as §1, §2

[10] = system: johnsongrass (Sorghum halepense)
From the text: as §1, §2

[11] = system: lambsquarters (Chenopodium album)
From the text: as §1, §2

[12] = system: morningglory (Ipomoea coccinea)
From the text: as §1, §2

[13] = system: ragweed (common ragweed, Ambrosia elatior)
From the text: as §1, §2

[14] = system: crabgrass, large (large crabgrass, Digitaria sanguinalis)
From the text: as §1, §2

[15] = system: barnyardgrass (Echinochloa crus-galli)
From the text: as §1, §2

[16] = Postemergence, 31 g ai/ha, 0 to 100 scale (0 no effect, 100 complete control)
[17] = Postemergence, 125 g ai/ha, scale 0 to 100, 0 is no effect, 100 is complete control
[18] = Postemergence, 250 g ai/ha, scale 0 to 100, 0 no effect, 100 complete control, 13 to 15 d
[19] = Preemergence, 31 g ai/ha, scale 0 to 100, 0 is no effect, 100 is complete control
[20] = Preemergence, 62 g ai/ha, scale 0 to 100, 0 is no effect, 100 is complete control
[21] = Preemergence, 125 g ai/ha, scale 0 to 100, 0 is no effect, 100 is complete control
[22] = Preemergence, 250 g ai/ha, scale 0 to 100 (0 no effect, 100 complete control)
[23] = postemergence, 62 g ai/ha, scale 0 to 100, 0 no effect, 100 complete control

COc1nn(C)c(=O)c(-c2c(C)ccc3ccccc23)c1O [Compound 54]
65: Plant response rating, Barnyardgrass [15, 21]
95: Pigweed plant response rating [3, 23] | Galium plant response rating [4, 16] | Plant response rating, Galium [4, 19] | Plant response rating, Galium [4, 20] | Plant response rating, Waterhemp [5, 17] | Plant response rating, Waterhemp [5, 18] | Velvetleaf plant response rating [7, 22] | Lambsquarters plant response rating [11, 16] | Lambsquarters plant response rating [11, 23] | Morningglory plant response rating [12, 16] | Plant response rating, Morningglory [12, 21] | Plant response rating, Ragweed [13, 17] | Plant response rating, Ragweed [13, 21] | Ragweed plant response rating [13, 23]
20: Foxtail, Giant plant response rating [2, 16] | Soybean plant response rating (soybean (Glycine max); [22]) | Crabgrass, Large plant response rating [14, 16] | Plant response rating, Barnyardgrass [15, 18]
80: Plant response rating, Foxtail, Giant [2, 20] | Blackgrass plant response rating [6, 22] | Plant response rating, Velvetleaf [7, 19] | Oilseed Rape plant response rating [8, 23] | Plant response rating, Lambsquarters [11, 19] | Plant response rating, Lambsquarters [11, 21] | Lambsquarters plant response rating [11, 22] | Plant response rating, Morningglory [12, 19]
10: Plant response rating, Soybean (soybean (Glycine max); [17]) | Plant response rating, Soybean (soybean (Glycine max); [18]) | Nutsedge, Yellow plant response rating [9, 16] | Plant response rating, Johnsongrass [10, 17] | Plant response rating, Johnsongrass [10, 18] | Johnsongrass plant response rating [10, 22]
55: Foxtail, Giant plant response rating [2, 23] | Plant response rating, Blackgrass [6, 20] | Plant response rating, Blackgrass [6, 21] | Plant response rating, Nutsedge, Yellow [9, 17] | Plant response rating, Crabgrass, Large [14, 18] | Plant response rating, Barnyardgrass [15, 17]
15: Blackgrass plant response rating [6, 16] | Barnyardgrass plant response rating [15, 16] | Plant response rating, Barnyardgrass [15, 19]
0: Wheat plant response rating [1, 16] | Plant response rating, Wheat [1, 17] | Plant response rating, Wheat [1, 18] | Plant response rating, Wheat [1, 19] | Plant response rating, Wheat [1, 20] | Plant response rating, Wheat [1, 21] | Wheat plant response rating [1, 22] | Plant response rating, Soybean (soybean (Glycine max); [19]) | Plant response rating, Soybean (soybean (Glycine max); [21]) | Plant response rating, Johnsongrass [10, 19] | Plant response rating, Johnsongrass [10, 20]
50: Wheat plant response rating [1, 23] | Plant response rating, Blackgrass [6, 19]
85: Pigweed plant response rating [3, 16] | Waterhemp plant response rating [5, 16] | Plant response rating, Velvetleaf [7, 20] | Plant response rating, Lambsquarters [11, 20] | Barnyardgrass plant response rating [15, 22]
40: Plant response rating, Blackgrass [6, 18] | Plant response rating, Oilseed Rape [8, 17] | Plant response rating, Crabgrass, Large [14, 19] | Plant response rating, Crabgrass, Large [14, 20]
35: Nutsedge, Yellow plant response rating [9, 23] | Plant response rating, Crabgrass, Large [14, 17] | Plant response rating, Barnyardgrass [15, 20]
60: Plant response rating, Blackgrass [6, 17] | Crabgrass, Large plant response rating [14, 22]
90: Plant response rating, Foxtail, Giant [2, 18] | Foxtail, Giant plant response rating [2, 22] | Plant response rating, Soybean (soybean (Glycine max); [20]) | Waterhemp plant response rating [5, 23] | Plant response rating, Velvetleaf [7, 21] | Velvetleaf plant response rating [7, 23] | Plant response rating, Oilseed Rape [8, 20] | Plant response rating, Oilseed Rape [8, 21] | Plant response rating, Morningglory [12, 20] | Ragweed plant response rating [13, 16] | Plant response rating, Ragweed [13, 19] | Plant response rating, Ragweed [13, 20]
70: Plant response rating, Foxtail, Giant [2, 19] | Oilseed Rape plant response rating [8, 16] | Plant response rating, Oilseed Rape [8, 18] | Plant response rating, Oilseed Rape [8, 19] | Plant response rating, Nutsedge, Yellow [9, 18] | Nutsedge, Yellow plant response rating [9, 22]
30: Barnyardgrass plant response rating [15, 23]
98: Plant response rating, Pigweed [3, 17] | Plant response rating, Galium [4, 17] | Plant response rating, Galium [4, 18] | Galium plant response rating [4, 23] | Plant response rating, Waterhemp [5, 19] | Plant response rating, Velvetleaf [7, 17] | Plant response rating, Morningglory [12, 17] | Morningglory plant response rating [12, 22] | Morningglory plant response rating [12, 23] | Plant response rating, Ragweed [13, 18]
100: Plant response rating, Pigweed [3, 18] | Plant response rating, Pigweed [3, 19] | Plant response rating, Pigweed [3, 20] | Plant response rating, Pigweed [3, 21] | Pigweed plant response rating [3, 22] | Plant response rating, Galium [4, 21] | Galium plant response rating [4, 22] | Plant response rating, Waterhemp [5, 20] | Plant response rating, Waterhemp [5, 21] | Waterhemp plant response rating [5, 22] | Plant response rating, Velvetleaf [7, 18] | Oilseed Rape plant response rating [8, 22] | Plant response rating, Lambsquarters [11, 17] | Plant response rating, Lambsquarters [11, 18] | Plant response rating, Morningglory [12, 18] | Ragweed plant response rating [13, 22]
45: Velvetleaf plant response rating [7, 16]
5: Soybean plant response rating (soybean (Glycine max); [16]) | Soybean plant response rating (soybean (Glycine max); [23]) | Blackgrass plant response rating [6, 23] | Plant response rating, Nutsedge, Yellow [9, 19] | Plant response rating, Nutsedge, Yellow [9, 20] | Johnsongrass plant response rating [10, 16] | Plant response rating, Johnsongrass [10, 21] | Johnsongrass plant response rating [10, 23]
75: Plant response rating, Foxtail, Giant [2, 17] | Plant response rating, Foxtail, Giant [2, 21] | Plant response rating, Crabgrass, Large [14, 21]
25: Plant response rating, Nutsedge, Yellow [9, 21] | Crabgrass, Large plant response rating [14, 23]

Cc1ccc2ccccc2c1-c1c(O)cnn(C)c1=O [Compound 56]
40: Plant response rating, Blackgrass [6, 18]
0: Wheat plant response rating [1, 16] | Wheat plant response rating [1, 23] | Foxtail, Giant plant response rating [2, 16] | Plant response rating, Foxtail, Giant [2, 17] | Foxtail, Giant plant response rating [2, 23] | Soybean plant response rating (soybean (Glycine max); [16]) | Plant response rating, Soybean (soybean (Glycine max); [17]) | Plant response rating, Soybean (soybean (Glycine max); [18]) | Soybean plant response rating (soybean (Glycine max); [23]) | Blackgrass plant response rating [6, 16] | Velvetleaf plant response rating [7, 16] | Velvetleaf plant response rating [7, 23] | Oilseed Rape plant response rating [8, 16] | Plant response rating, Oilseed Rape [8, 17] | Plant response rating, Oilseed Rape [8, 18] | Oilseed Rape plant response rating [8, 23] | Nutsedge, Yellow plant response rating [9, 16] | Johnsongrass plant response rating [10, 16] | Johnsongrass plant response rating [10, 23] | Lambsquarters plant response rating [11, 16] | Ragweed plant response rating [13, 16] | Ragweed plant response rating [13, 23] | Crabgrass, Large plant response rating [14, 16] | Barnyardgrass plant response rating [15, 16]
85: Plant response rating, Pigweed [3, 17] | Galium plant response rating [4, 23] | Plant response rating, Lambsquarters [11, 17] | Plant response rating, Lambsquarters [11, 18]
75: Pigweed plant response rating [3, 23] | Waterhemp plant response rating [5, 23]
35: Morningglory plant response rating [12, 16]
80: Pigweed plant response rating [3, 16] | Galium plant response rating [4, 16]
15: Plant response rating, Velvetleaf [7, 17]
70: Plant response rating, Velvetleaf [7, 18]
55: Waterhemp plant response rating [5, 16]
60: Plant response rating, Nutsedge, Yellow [9, 18] | Plant response rating, Ragweed [13, 17] | Plant response rating, Ragweed [13, 18]
50: Plant response rating, Foxtail, Giant [2, 18] | Plant response rating, Nutsedge, Yellow [9, 17] | Lambsquarters plant response rating [11, 23] | Plant response rating, Morningglory [12, 17] | Plant response rating, Morningglory [12, 18] | Morningglory plant response rating [12, 23]
5: Plant response rating, Wheat [1, 17] | Plant response rating, Wheat [1, 18] | Plant response rating, Blackgrass [6, 17] | Blackgrass plant response rating [6, 23] | Nutsedge, Yellow plant response rating [9, 23] | Plant response rating, Johnsongrass [10, 17] | Plant response rating, Crabgrass, Large [14, 17] | Crabgrass, Large plant response rating [14, 23] | Plant response rating, Barnyardgrass [15, 17] | Barnyardgrass plant response rating [15, 23]
90: Plant response rating, Pigweed [3, 18] | Plant response rating, Galium [4, 17] | Plant response rating, Galium [4, 18] | Plant response rating, Waterhemp [5, 18]
95: Plant response rating, Waterhemp [5, 17]
10: Plant response rating, Johnsongrass [10, 18] | Plant response rating, Barnyardgrass [15, 18]
20: Plant response rating, Crabgrass, Large [14, 18]
